Reference: BigSolDB 2.1

C#C[C@]1(O)CC[C@H]2[C@@H]3CCC4=CC(=O)CC[C@@H]4[C@H]3C(=C)C[C@@]21CC
solubility (mole fraction)
Settings	278.15 K	283.15 K	288.15 K	293.15 K	298.15 K	303.15 K	308.15 K	313.15 K	318.15 K	323.15 K
in DMF	0.0797	0.084	0.0882	0.093	0.0975	0.102	0.107	0.112	0.117	0.121
in isopropanol	0.00597	0.00697	0.00803	0.00923	0.0106	0.0121	0.0137	0.0156	0.0174	0.0195
in n-propanol	0.00504	0.00579	0.00677	0.00783	0.00901	0.0103	0.0117	0.0132	0.015	0.0168
in water	1.48e-05	1.8e-05	2.15e-05	2.56e-05	3.11e-05	3.69e-05	4.3e-05	5.03e-05	5.85e-05	6.78e-05
